Structures can show the parent of a compound that is named as a salt.
Molecular target: T1, 5-HT2 receptors (Rattus norvegicus, UniProt P14842)
T1 construct: essentially as described by Leysen et al. (Mol. Pharmacol. 21, 301-14, 1982) using; from tissue
Assay: Affinity to 5-HT2 receptors (Test 1, 3H-ketanserin binding)
Settings: 3H-ketanserin as ligand
Procedure: Test 1. Affinity to 5-HT2 receptors.
The binding assay is carried out essentially as described by Leysen et al. (Mol. Pharmacol. 21, 301-14, 1982) using ^3 H-ketanserin as ligand.

T1 sequence (P14842 whole entry): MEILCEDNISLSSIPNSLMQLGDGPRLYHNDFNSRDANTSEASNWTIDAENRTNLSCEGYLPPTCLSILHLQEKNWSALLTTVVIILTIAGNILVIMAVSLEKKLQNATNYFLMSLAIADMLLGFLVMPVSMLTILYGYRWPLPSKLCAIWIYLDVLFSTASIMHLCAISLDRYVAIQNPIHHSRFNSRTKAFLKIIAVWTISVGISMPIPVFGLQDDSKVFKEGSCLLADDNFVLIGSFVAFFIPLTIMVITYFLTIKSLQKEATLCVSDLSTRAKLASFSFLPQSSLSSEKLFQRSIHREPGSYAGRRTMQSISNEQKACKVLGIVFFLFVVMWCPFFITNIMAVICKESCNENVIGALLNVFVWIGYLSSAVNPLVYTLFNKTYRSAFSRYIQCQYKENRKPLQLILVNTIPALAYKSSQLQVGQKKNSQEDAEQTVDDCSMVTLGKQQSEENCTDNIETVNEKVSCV

SMILES: Fc1ccc(N(CCCN2CCN(c3ccccn3)CC2)c2ccc(F)cc2)cc1 [1:1, 1-{3-[Bis-(4-fluorophenyl)amino]propyl}-4-(2-pyridyl)-piperazine-dihydrochloride]
- Ki: 18 nM

SMILES: Fc1ccc(C(OCCN2CCN(c3ccccn3)CC2)c2ccc(F)cc2)cc1 [3:1, 4-{2-[(4.4'-Difluorobenzhydryl)oxyl]ethyl}-1-(2-pyridyl)piperazine dihydrochloride]
- Ki: 11 nM

Reference: patent US6326371A, “Pyrudyl and pyrimidylpiperazine derivatives” (Pharmacia Aktiebolag, priority 1992, dated 2001)
